IC50 data for ten compounds are collected here from patent US20240383954A1, “PEPTIDE INHIBITORS OF INTERLEUKIN-23 RECEPTOR AND THEIR USE TO TREAT INFLAMMATORY DISEASES” (Janssen Biotech, Inc., priority 2020, published 2024).

Starred links: 1 amine or outer side, 2 acyl side, 3 side chain; linkers in the order of their positions; H or OH if unused. Positions of bridges follow the written chain, without caps; N, C: chain ends. Non-standard residues stand in square brackets, D forms with d. Residues, ends and D or L forms follow the SMILES beside them. *: point of attachment. X3 = C[C@H](c1ccc2ccccc2c1)[C@H](N[*:1])C(=O)[*:2]; Trp(7-Me) = Cc1cccc2c(C[C@H](N)C(=O)O)c[nH]c12; Phe(4-NH2) = Nc1ccc(C[C@H](N)C(=O)O)cc1; Ac6c(4,4-F2) = NC1(C(=O)O)CCC(F)(F)CC1; 2Nal = N[C@@H](Cc1ccc2ccccc2c1)C(=O)O; AEF = NCCOc1ccc(C[C@H](N)C(=O)O)cc1; αMeY = C[C@](N)(Cc1ccc(O)cc1)C(=O)O; αMeF = C[C@](N)(Cc1ccccc1)C(=O)O; αMeE = C[C@](N)(CCC(=O)O)C(=O)O; Cit = NC(=O)NCCC[C@H](N)C(=O)O; αMeL = CC(C)C[C@](C)(N)C(=O)O; Pen = CC(C)(S)[C@H](N)C(=O)O; αMeK = C[C@](N)(CCCCN)C(=O)O; Thp = NC1(C(=O)O)CCOCC1; Ac3c = NC1(C(=O)O)CC1; Boc = CC(C)(C)OC(=O)*; Aib = CC(C)(N)C(=O)O; Propionyl = CCC(=O)*
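Also: cryopreserved PBMCs stimulated at 37 °C in 5% CO2, then lysed, with phosphorylated STAT3 quantified in lysates using a phospho-STAT panel kit.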

IL-23R, sequence (Q5VWK5 24-629): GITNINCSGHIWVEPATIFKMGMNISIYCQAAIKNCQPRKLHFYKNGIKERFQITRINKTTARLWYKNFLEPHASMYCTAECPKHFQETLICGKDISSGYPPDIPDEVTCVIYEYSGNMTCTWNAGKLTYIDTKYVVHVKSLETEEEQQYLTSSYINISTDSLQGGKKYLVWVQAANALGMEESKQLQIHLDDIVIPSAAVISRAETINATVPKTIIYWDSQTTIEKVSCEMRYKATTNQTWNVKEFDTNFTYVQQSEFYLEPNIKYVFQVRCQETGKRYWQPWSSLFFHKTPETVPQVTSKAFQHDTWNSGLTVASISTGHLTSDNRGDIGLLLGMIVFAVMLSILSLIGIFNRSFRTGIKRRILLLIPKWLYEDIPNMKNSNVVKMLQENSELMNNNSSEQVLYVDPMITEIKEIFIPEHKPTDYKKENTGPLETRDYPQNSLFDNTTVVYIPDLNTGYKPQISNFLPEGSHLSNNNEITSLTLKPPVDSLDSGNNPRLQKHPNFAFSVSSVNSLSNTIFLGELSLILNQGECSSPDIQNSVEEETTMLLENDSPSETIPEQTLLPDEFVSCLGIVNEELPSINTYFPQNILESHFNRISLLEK

The experiment has as its target IL-23R (Homo sapiens, UniProt Q5VWK5). The experiment in a line: cell-based. The conditions noted are these: PBMC pSTAT3 IC50 (nM), PBMCs from healthy donors, IL-23 5 ng/mL, 30 minutes, phosphorylated STAT3.
A word on the IC50: it is the concentration at which inhibition is half-maximal. Read a low IC50 as inhibition by little substance. As for `CC(=O)NCCCC[C@@H]1NC(=O)[C@H](Cc2c[nH]c3c(C)cccc23)NC(=O)[C@H]([C@@H](C)O)NC(=O)[C@H](CC(N)=O)NC(=O)[C@@H](NC(C)=O)C(C)(C)SSC(C)(C)[C@@H](C(=O)N[C@@H](Cc2ccc(OCCN)cc2)C(=O)N[C@@H](Cc2ccc3ccccc3c2)C(=O)NC2(C(=O)N[C@@H](CCCCNC(=O)C(C)(C)C)C(=O)N[C@@H](CC(N)=O)C(=O)NC3(C(N)=O)CCOCC3)CCOCC2)NC1=O` [Compound 141, Ac-[Pen]-N-T-[W(7-Me)]-[Lys(Ac)]-[Pen]-Phe[4-(2-aminoethoxy)]-[2-Nal]-[THP]-[Lys(COtBu)]-N-[THP]-NH2], the half-maximal inhibitory concentration (IC50) stood at 3.7 nM.
The figure for `CC(=O)N[C@H](CCCNC(=N)N)C(=O)N[C@@H]1C(=O)N[C@@H](CC(N)=O)C(=O)N[C@@H]([C@@H](C)O)C(=O)N[C@@H](Cc2c[nH]c3c(C)cccc23)C(=O)N[C@@H](CCCNC(N)=O)C(=O)N[C@H](C(=O)N[C@@H](Cc2ccc(OCCN)cc2)C(=O)N[C@@H](Cc2ccc3ccccc3c2)C(=O)N[C@@](C)(CC(C)C)C(=O)N[C@@H](CCC(=O)O)C(=O)N[C@@H](CC(N)=O)C(=O)N[C@@](C)(Cc2ccccc2)C(N)=O)C(C)(C)SSC1(C)C` [Compound 149, Ac-[(D)Arg]-[Pen]-N-T-[W(7-Me)]-[Cit]-[Pen]-Phe[4-(2-aminoethoxy)]-[2-Nal]-[aMeLeu]-E-N-[a-MePhe]-NH2] (Ac-[dR][Pen]NT[Trp(7-Me)][Cit][Pen][AEF][2Nal][αMeL]EN[αMeF]-NH2; disulfide 2-7) is 2.3 nM; for `CC(=O)NCCCC[C@@H]1NC(=O)[C@H](Cc2c[nH]c3c(C)cccc23)NC(=O)[C@H]([C@@H](C)O)NC(=O)[C@H](CC(N)=O)NC(=O)[C@@H](NC(=O)[C@@H](CCCNC(=N)N)NC(C)=O)C(C)(C)SSC(C)(C)[C@@H](C(=O)N[C@@H](Cc2ccc(OCCN)cc2)C(=O)N[C@@H](Cc2ccc3ccccc3c2)C(=O)NC2(C(=O)N[C@@](C)(CCC(=O)O)C(=O)N[C@@H](CC(N)=O)C(=O)N[C@@](C)(Cc3ccc(O)cc3)C(N)=O)CCOCC2)NC1=O` [Compound 150, Ac-[(D)Arg]-[Pen]-N-T-[W(7-Me)]-[Lys(Ac)]-[Pen]-Phe[4-(2-aminoethoxy)]-[2-Nal]-[THP]-[aMeGlu]-N-[aMeTyr]-NH2] (Ac-[dR][Pen]NT[Trp(7-Me)]K(Ac)[Pen][AEF][2Nal][Thp][αMeE]N[αMeY]-NH2; disulfide 2-7) it is 4.7 nM.
Compound `CC(=O)NCCCC[C@@H]1NC(=O)[C@H](Cc2c[nH]c3c(C)cccc23)NC(=O)[C@H]([C@@H](C)O)NC(=O)[C@H](CC(N)=O)NC(=O)[C@@H](NC(C)=O)C(C)(C)SSC(C)(C)[C@@H](C(=O)N[C@@H](Cc2ccc(OCCN)cc2)C(=O)N[C@@H](Cc2ccc3ccccc3c2)C(=O)N[C@@](C)(CCCCN)C(=O)N[C@@H](CCCCNC(C)=O)C(=O)N[C@@H](CC(N)=O)C(=O)N[C@@](C)(Cc2ccc(O)cc2)C(N)=O)NC1=O` [Compound 151, Ac-[Pen]-N-T-[W(7-Me)]-[Lys(Ac)]-[Pen]-Phe[4-(2-aminoethoxy)]-[2-Nal]-[a-MeLys]-[Lys(Ac)]-N-[aMeTyr]-NH2] returned an IC50 of 5.7 nM.
The result for `CC(=O)NCCCC[C@H](NC(=O)[C@](C)(CCCCN)NC(=O)[C@H](Cc1ccc2ccccc2c1)NC(=O)[C@H](Cc1ccc(OCCN)cc1)NC(=O)[C@H]1NC(=O)[C@H](CCCNC(N)=O)NC(=O)[C@H](Cc2c[nH]c3c(C)cccc23)NC(=O)[C@H]([C@@H](C)O)NC(=O)[C@H](CC(N)=O)NC(=O)[C@@H](NC(C)=O)C(C)(C)SSC1(C)C)C(=O)N[C@@H](CC(N)=O)C(=O)NC(C)(C)C(N)=O` [Compound 302, MeCO-Pen-N-T-7MeW-Cit-Pen-AEF-2Nal-aMeK-K(Ac)-N-Aib-CONH2] (Ac-[Pen]NT[Trp(7-Me)][Cit][Pen][AEF][2Nal][αMeK]K(Ac)N[Aib]-NH2; disulfide 1-6) reads 7 nM; that for `CC(=O)NCCCC[C@@H]1NC(=O)[C@H](Cc2c[nH]c3c(C)cccc23)NC(=O)[C@H]([C@@H](C)O)NC(=O)[C@H](CC(N)=O)NC(=O)[C@@H](NC(=O)[C@@H](CCCNC(=N)N)NC(C)=O)C(C)(C)SSC(C)(C)[C@@H](C(=O)N[C@@H](Cc2ccc(OCCN)cc2)C(=O)N[C@@H](Cc2ccc3ccccc3c2)C(=O)NC2(C(=O)N[C@@H](CCC(=O)O)C(=O)N[C@@H](CC(N)=O)C(=O)NC3(C(N)=O)CCOCC3)CCC(F)(F)CC2)NC1=O` [Compound 303, MeCO-r-Pen-N-T-7MeW-K(Ac)-Pen-AEF-2Nal-4diFAchx-E-N-THP--CONH2] (Ac-[dR][Pen]NT[Trp(7-Me)]K(Ac)[Pen][AEF][2Nal][Ac6c(4,4-F2)]EN[Thp]-NH2; disulfide 2-7), 1.3 nM; that for `CC(=O)NCCCC[C@@H]1NC(=O)[C@H](Cc2c[nH]c3c(C)cccc23)NC(=O)[C@H]([C@@H](C)O)NC(=O)[C@H](CC(N)=O)NC(=O)[C@@H](N)C(C)(C)SSC(C)(C)[C@@H](C(=O)N[C@@H](Cc2ccc(OCCNC(=O)OC(C)(C)C)cc2)C(=O)N[C@@H](Cc2ccc3ccccc3c2)C(=O)N[C@@](C)(CCCCNC(=O)OC(C)(C)C)C(=O)N[C@@H](CCCCNC(C)=O)C(=O)N[C@@H](CC(N)=O)C(=O)N[C@@](C)(Cc2ccccc2)C(N)=O)NC1=O` [Compound 304, NH2--Pen-N-T-7MeW-K(Ac)-Pen-AEF(Boc)-2Nal-aMeK(Boc)-K(Ac)-N-aMePhe-CONH2], 28 nM.
The figure for `CC(=O)NCCCC[C@@H]1NC(=O)[C@H](Cc2c[nH]c3c(C)cccc23)NC(=O)[C@H]([C@@H](C)O)NC(=O)[C@H](CC(N)=O)NC(=O)[C@@H](NC(=O)[C@H](N)CCCNC(=N)N)C(C)(C)SSC(C)(C)[C@@H](C(=O)N[C@@H](Cc2ccc(OCCNC(=O)OC(C)(C)C)cc2)C(=O)N[C@@H](Cc2ccc3ccccc3c2)C(=O)NC2(C(=O)N[C@@H](CCC(=O)O)C(=O)N[C@@H](CC(N)=O)C(=O)N[C@@](C)(Cc3ccccc3)C(N)=O)CCOCC2)NC1=O` [Compound 305, NH2-r-Pen-N-T-7MeW-K(Ac)-Pen-AEF(Boc)-2Nal-THP-E-N-aMePhe-CONH2] (H-[dR][Pen]NT[Trp(7-Me)]K(Ac)[Pen][AEF](Boc)[2Nal][Thp]EN[αMeF]-NH2; disulfide 2-7) is 17 nM.
For `CC(=O)Nc1ccc(C[C@@H]2NC(=O)[C@H](Cc3c[nH]c4c(C)cccc34)NC(=O)[C@H]([C@@H](C)O)NC(=O)[C@H](CC(N)=O)NC(=O)[C@@H](NC(=O)[C@@H](CCCNC(=N)N)NC(C)=O)C(C)(C)SSC(C)(C)[C@@H](C(=O)N[C@@H](Cc3ccc(OCCN)cc3)C(=O)N[C@@H](Cc3ccc4ccccc4c3)C(=O)NC3(C(=O)N[C@@H](CCC(=O)O)C(=O)N[C@@H](CC(N)=O)C(=O)NC4(C(N)=O)CCOCC4)CC3)NC2=O)cc1` [Compound 306, MeCO-r-Pen-N-T-7MeW-Paf(Ac)-Pen-AEF-2Nal-Acpx-E-N-THP---CONH2] (Ac-[dR][Pen]NT[Trp(7-Me)][Phe(4-NH2)](Ac)[Pen][AEF][2Nal][Ac3c]EN[Thp]-NH2; disulfide 2-7), the concentration for half-maximal inhibition (IC50) came to 9.6 nM.
In turn, `CCC(=O)N[C@H](CCCNC(=N)N)C(=O)N[C@@H]1C(=O)N[C@@H](CCC(N)=O)C(=O)N[C@@H]([C@@H](C)O)C(=O)N[C@@H](Cc2c[nH]c3ccccc23)C(=O)N[C@@H](CCC(N)=O)C(=O)N[C@H](C(=O)N[C@@H](Cc2ccc(OCCN)cc2)C(=O)N[C@H](C(=O)NC2(C(=O)N[C@@H](CCC(=O)O)C(=O)N[C@@H](CC(N)=O)C(=O)NC3(C(N)=O)CCOCC3)CCOCC2)[C@H](C)c2ccc3ccccc3c2)C(C)(C)SSC1(C)C` [Compound 307, EtCO-r-Pen-Q-T-W-Q-Pen-AEF-bMe2Nal(2S,3R)-THP-E-N-THP---CONH2] (Propionyl-[dR][Pen]QTWQ[Pen][AEF][X3][Thp]EN[Thp]-NH2; disulfide 2-7) displayed an IC50 of 52 nM.
